Results reported in US10052320B2, “Substituted quinoxalines as FGFR kinase inhibitors” (ASTEX THERAPEUTICS LIMITED, priority 2011, dated 2018).
Values joined by “and” are separate entries in the source; they are usually repeats but may differ in a detail not shown here. Equal values may be shown once. Read-outs that look alike come from different tables or passages of the source.

Key:
[1] = target: Ba/F3-FGFR1-transfected cells (Homo sapiens, UniProt P11362); test: Ba/F3-FGFR1 (minus IL3) cellular proliferation assay, Alamar Blue; assay type: cell-based; details: for BAF3-FGFR 1 (MIN IL3) 96 well pIC50: minus IL3, 96 well; for BAF3-FGFR 1 (MIN IL3) 384 well pIC50: minus IL3, 384 well
In short: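 Ba/F3 cells transfected with FGFR1 were incubated with compound in RPMI-1640/10% FBS for 24 h at 37 °C, 5% CO2. Alamar Blue (resazurin) was then added for 4 h and fluorescence was read at ex 540/em 590 nm. The counterscreen used the same conditions plus 10 ng/ml murine IL3.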

[2] = tested on: Ba/F3-KDR-transfected cells in the presence of 10 ng/ml murine IL3; test: Ba/F3-KDR (plus IL3) cellular proliferation counterscreen, Alamar Blue; assay type: cell-based; details: Mus musculus, plus 10 ng/ml murine IL3
In short: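 Ba/F3-KDR cells in RPMI-1640 with 10% FBS, 20000 (384-well) or 10000 (96-well) per well, given compound for 24 h at 37° C; Alamar Blue then added for 4 h and fluorescence read (ex 540/em 590 nm). Counterscreen run identically with 10 ng/ml murine IL3.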

FGFR1 (h) = FGFR1 (h) (Homo sapiens, UniProt P11362); test: FGFR1 (enzymatic assay), TR-FRET; assay type: biochemical; details: read-out: FGFR 1 pIC50 (converted)
Procedure: In a final reaction volume of 30 μL, FGFR1 (h) (25 ng/ml) was incubated with 50 mM HEPES pH 7.5, 6 mM MnCl2, 1 mM DTT, 0.1 mM Na3VO4, 0.01% Triton-X-100, 500 nM Btn-Flt3 and 5 μM ATP in the presence of compound (1% DMSO final). […] Time-Resolved Fluorescence Resonance Energy Transfer (TR-FRET) signal (ex340 nm. Em 620 nm, em 655 nm) was measured afterwards and results are expressed in RFU (Relative Fluorescence Units).

[3] = tested on: Ba/F3-Flt3-transfected cells in the presence of 10 ng/ml murine IL3; test: Ba/F3-Flt3 (plus IL3) cellular proliferation counterscreen, Alamar Blue; assay type: cell-based; details: Mus musculus; plus 10 ng/ml murine IL3; read-out: BAF3-FLT3 (PLUS IL3) 384 well pIC50 (converted)
[4] = tested on: Ba/F3-Flt3-transfected cells in the presence of 10 ng/ml murine IL3; test: as above; assay type: cell-based; details: Mus musculus; plus 10 ng/ml murine IL3; read-out: BAF3-FLT3 (PLUS IL3) 96 well pIC50 (converted)
[5] = read-out: BAF3-KDR (PLUS IL3) 96 well pIC50 (converted)
[6] = read-out: BAF3-KDR (PLUS IL3) 384 well pIC50 (converted)

FGFR1 (h), sequence (P11362 22-822): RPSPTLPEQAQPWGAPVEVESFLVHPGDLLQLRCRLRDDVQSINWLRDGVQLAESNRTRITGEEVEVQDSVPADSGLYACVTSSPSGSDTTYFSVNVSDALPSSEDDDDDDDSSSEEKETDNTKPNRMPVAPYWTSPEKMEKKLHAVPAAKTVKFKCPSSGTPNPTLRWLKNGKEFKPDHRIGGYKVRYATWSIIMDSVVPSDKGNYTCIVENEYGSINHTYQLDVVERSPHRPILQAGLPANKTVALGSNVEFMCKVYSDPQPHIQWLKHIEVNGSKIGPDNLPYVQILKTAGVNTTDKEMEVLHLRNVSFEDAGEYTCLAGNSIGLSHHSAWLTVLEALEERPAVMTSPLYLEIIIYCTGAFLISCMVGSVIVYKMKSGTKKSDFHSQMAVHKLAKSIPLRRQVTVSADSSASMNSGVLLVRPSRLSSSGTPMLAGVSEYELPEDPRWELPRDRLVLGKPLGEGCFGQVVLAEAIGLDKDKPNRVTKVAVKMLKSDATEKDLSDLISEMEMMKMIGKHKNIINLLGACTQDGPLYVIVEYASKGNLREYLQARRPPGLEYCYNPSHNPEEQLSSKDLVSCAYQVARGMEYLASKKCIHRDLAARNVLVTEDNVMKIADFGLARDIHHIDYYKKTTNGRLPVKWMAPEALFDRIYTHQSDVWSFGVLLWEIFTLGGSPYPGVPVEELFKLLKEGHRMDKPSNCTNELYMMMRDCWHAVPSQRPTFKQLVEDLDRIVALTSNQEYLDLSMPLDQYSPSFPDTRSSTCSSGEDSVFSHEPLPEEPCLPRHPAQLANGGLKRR
Ba/F3-FGFR1-transfected cells, sequence (P11362 whole entry, change not shown): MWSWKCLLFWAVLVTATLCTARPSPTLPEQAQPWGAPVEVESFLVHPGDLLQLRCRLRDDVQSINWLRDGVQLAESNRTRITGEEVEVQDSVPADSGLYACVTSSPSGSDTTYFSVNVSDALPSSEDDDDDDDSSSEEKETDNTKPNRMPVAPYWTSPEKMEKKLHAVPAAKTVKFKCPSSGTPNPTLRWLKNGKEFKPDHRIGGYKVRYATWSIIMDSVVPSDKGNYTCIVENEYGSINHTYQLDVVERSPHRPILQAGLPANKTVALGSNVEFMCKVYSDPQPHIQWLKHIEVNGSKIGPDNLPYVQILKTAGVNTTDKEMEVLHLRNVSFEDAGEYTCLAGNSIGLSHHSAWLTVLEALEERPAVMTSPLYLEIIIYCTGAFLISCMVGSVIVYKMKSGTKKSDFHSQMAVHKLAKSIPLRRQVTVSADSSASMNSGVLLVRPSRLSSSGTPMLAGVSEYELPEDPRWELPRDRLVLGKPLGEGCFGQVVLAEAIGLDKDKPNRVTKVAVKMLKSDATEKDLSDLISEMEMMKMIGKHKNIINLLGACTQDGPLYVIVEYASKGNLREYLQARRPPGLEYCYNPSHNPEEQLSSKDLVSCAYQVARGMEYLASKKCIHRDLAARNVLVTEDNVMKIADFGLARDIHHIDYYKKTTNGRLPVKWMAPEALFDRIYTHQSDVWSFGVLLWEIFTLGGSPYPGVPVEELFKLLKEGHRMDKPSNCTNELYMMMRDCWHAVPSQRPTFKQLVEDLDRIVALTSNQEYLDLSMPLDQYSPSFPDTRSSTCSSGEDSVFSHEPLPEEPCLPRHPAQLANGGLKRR

Compound	BAF3-FGFR 1 (MIN IL3) 96 well pIC50 [1]	BAF3-FGFR 1 (MIN IL3) 384 well pIC50 [1]	IC50 [2, 5] [µM]	IC50 [2, 6] [µM]	IC50 (FGFR1 (h)) [µM]	melting point	IC50 [3] [µM]	IC50 [4] [µM]
COc1cc(OC)cc(N(CC2CC2)c2ccc3ncc(-n4cnc(C)c4)nc3c2)c1 [Compound 30]	5.03	5.32	> 10	> 10	0.0513	113 °C	> 10	> 10
COc1cc(OC)cc(N(CC2CC2)c2ccc3ncc(-c4cn(CCO)nn4)nc3c2)c1 [Compound 40]	5.4	5.24	> 10	> 10	0.0776	178 °C and 177 °C	> 10	> 10
COc1cc(OC)cc(N(CC2CC2)c2ccc3ncc(-n4cncn4)nc3c2)c1 [Compound 50]	<5	<5	> 10	> 10	0.759	168 °C	> 10	> 10
COc1cc(OC)cc(N(CC2CC2)c2ccc3ncc(Nc4cnn(C)c4)nc3c2)c1 [Compound 61]				> 10		160 °C	> 10	6.76
COc1cc(OC)cc(N(CC2CC2)c2ccc3ncc(-c4cnn(C)n4)nc3c2)c1 [Compound 70]			> 10	> 10		129 °C	> 10	> 10
COc1cc(OC)cc(N(CC2CC2)c2ccc3ncc(-c4cn(C)nn4)nc3c2)c1 [Compound 71]			> 10	> 10		141 °C	> 10	> 10
COc1cc(OC)cc(N(CC2CC2)c2ccc3ncc(-c4nnnn4C)nc3c2)c1 [Compound 83]	<5	<5	> 10	> 10	> 1	168 °C	> 10	> 10
